Source: PubChem BioAssay (NCI)
Where “and” joins values, the source holds several entries; their conditions need not be identical. Equal values may be shown once.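 Five compound concentrations were applied to cells in 96-well plates for 48 hours; endpoints were derived by simple linear interpolation of the resulting dose-response curve. Abbreviation: GI50, concentration required for 50% inhibition of growth. TGI: total growth inhibition.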

How the values were obtained:
Assay in all cases: NCI-60 cell line screen, 48 h
SF-295 CNS = system: SF-295 CNS
SF-268 CNS = system: SF-268 CNS
A549 NSCLC = system: A549 NSCLC
786-0 renal = system: 786-0 renal
K-562 leukemia = system: K-562 leukemia
SNB-19 CNS = system: SNB-19 CNS
NCI-H460 lung = system: NCI-H460 lung
HOP-92 NSCLC = system: HOP-92 NSCLC
SW-620 colon = system: SW-620 colon
RPMI-8226 leukemia = system: RPMI-8226 leukemia

| Structure (SMILES) | TGI (SF-295 CNS) | TGI (SF-268 CNS) | TGI (A549 NSCLC) | TGI (786-0 renal) | TGI (K-562 leukemia) | TGI (SNB-19 CNS) | TGI (NCI-H460 lung) | TGI (HOP-92 NSCLC) | TGI (SW-620 colon) | TGI (RPMI-8226 leukemia) | GI50 (SF-295 CNS) | GI50 (RPMI-8226 leukemia) | GI50 (SF-268 CNS) | GI50 (A549 NSCLC) | GI50 (786-0 renal) | GI50 (K-562 leukemia) | GI50 (SNB-19 CNS) | GI50 (NCI-H460 lung) | GI50 (HOP-92 NSCLC) | GI50 (SW-620 colon) |
| --- | --- | --- | --- | --- | --- | --- | --- | --- | --- | --- | --- | --- | --- | --- | --- | --- | --- | --- | --- | --- |
| OCC12C3C4C5C3C1C5C42 (stereo unspecified) | > 100 µM | > 100 µM | > 100 µM | > 100 µM | > 100 µM | > 100 µM | > 100 µM | > 100 µM | > 100 µM | – | – | – | – | – | – | – | – | – | – | – |
| O=C(NC1CCCCC1)NS(=O)(=O)c1ccc2c(c1)CCC2 | > 100 µM | > 100 µM | > 100 µM | > 100 µM | > 100 µM | > 100 µM | – | > 100 µM | > 100 µM | > 100 µM | – | – | – | – | – | – | – | – | – | – |
| CCOc1ccccc1C(=O)N1CCN(c2cc(Cl)cc(Cl)c2)CC1 | 0.779 µM | 18.7 µM | 15.8 µM | 14.8 µM | 25.8 µM | 15.8 µM | 11.9 µM | 12.9 µM | 15.8 µM | 5.32 µM | 0.0252 µM | 0.0369 µM | 0.112 µM | 0.0429 µM | 0.0624 µM | 0.0286 µM | 0.0432 µM | 0.0362 µM | 0.182 µM | 0.0415 µM |
| O=S(=O)(c1ccc(Cl)cc1)C(Cl)(Cl)Cl | 23 µM | 20.6 µM | > 50 µM | 18.1 µM | > 100 µM | > 78.1 µM | 17 µM | 23.2 µM | 11.7 µM | > 52.9 µM | 5.3 µM | 3.35 µM | 1.56 µM | 3.46 µM | 0.968 µM | 1.6 µM | 15.2 µM | 3.79 µM | 1.71 µM | 2.58 µM |
| O=C1OCC2=C1C(c1ccccc1)c1cc3c(cc1N2)OCO3 (stereo unspecified) | – | > 43.4 µM | > 56.4 µM | > 69.3 µM | 32.7 µM | > 100 µM | – | 7.63 µM | > 100 µM | – | 0.0169 µM | 0.0571 µM | 0.0654 µM | 0.0375 µM | 0.055 µM | – | 0.0568 µM | 0.0354 µM | 0.141 µM | 0.037 µM |
| COc1cc2c(cc1C1COc3cc4occc4cc3C1=O)OCO2 (stereo unspecified) | > 100 µM | > 100 µM | > 100 µM | > 100 µM | – | > 100 µM | – | > 100 µM | > 100 µM | 30.1 µM | – | – | – | – | – | – | – | – | – | – |
| O=C(OCc1ccc2ccccc2n1)c1cn(C2CC2)c2cc(N3CCN(Cc4ccc5ccccc5n4)CC3)c(F)cc2c1=O | > 100 µM | > 100 µM | > 100 µM | > 68.4 µM | > 100 µM | > 100 µM | > 100 µM | > 100 µM | > 100 µM | > 64.2 µM | 35.2 µM | > 36.3 µM | > 62.5 µM | 98.2 µM | > 49.2 µM | > 53.5 µM | > 81.6 µM | 39.3 µM | > 100 µM | > 89.5 µM |
| Nc1nc(OCc2ccccc2)c2[nH]cnc2n1 | 395 µM and 118 µM | 400 µM and 574 µM | 338 µM and 240 µM | 400 µM and 96.9 µM | 400 µM and 307 µM | 400 µM and 213 µM | 400 µM and 195 µM | 89.2 µM and 239 µM and 183 µM | 400 µM and 289 µM | 69 µM | 35.2 µM and 24.1 µM | 50 µM and 21.6 µM | 53.2 µM | 35.1 µM and 48.9 µM | 40.1 µM and 27.8 µM | 46.4 µM | 86.2 µM and 33 µM | 35.8 µM and 37.6 µM | 7.9 µM and 27.2 µM | 98.5 µM |
| CC(=O)OC12C=C(C)C(C(C)C1)C1C(=O)N(CCN3CCOCC3)C(=O)C12 (stereo unspecified) | > 100 µM | > 100 µM | > 100 µM | > 100 µM | > 100 µM | > 100 µM | – | > 100 µM | > 100 µM | – | > 100 µM | – | > 100 µM | > 100 µM | > 100 µM | > 100 µM | > 100 µM | – | > 100 µM | > 100 µM |
| O=C1OC(=O)C(=C\c2ccc3c(c2)OCO3)/C1=C/c1ccc2c(c1)OCO2 | > 100 µM | > 100 µM | > 100 µM | > 100 µM | > 100 µM | > 100 µM | > 100 µM | > 100 µM | > 100 µM | 97.2 µM | – | – | – | – | – | – | – | – | – | – |
| CCN(CC)CC1c2ccccc2C(CNc2ccccc2)N1C (stereo unspecified) | > 100 µM | > 100 µM | > 100 µM | > 100 µM | > 100 µM | > 100 µM | > 100 µM | > 100 µM | > 100 µM | > 100 µM | – | – | – | – | – | – | – | – | – | – |
| O=C(/C=C\c1cccc([N+](=O)[O-])c1)/C=C/c1cccc([N+](=O)[O-])c1 | 7.77 µM | 9.89 µM | 12.2 µM | 22.1 µM | – | > 100 µM | > 100 µM | 43.9 µM | 4.53 µM | 1.6 µM | 2.37 µM | 0.43 µM | 3.08 µM | 3.21 µM | 5.05 µM | – | 16.4 µM | 6.61 µM | 9.92 µM | 1.9 µM |
| N#CC(=C1C=CC(=NO)C=C1)c1ccc(Cl)cc1 | 48 µM | 48 µM | 49.7 µM | 5.69 µM | – | > 100 µM | 56.4 µM | 44.8 µM | 24 µM | 15.3 µM | – | – | – | – | – | – | – | – | – | – |
| CC(=O)CN(Cc1cc(C)c2c(c1)c1ccccc1n2Cc1ccccc1)S(=O)(=O)c1ccc(C)cc1 | > 100 µM | > 100 µM | > 100 µM | > 100 µM | > 100 µM | > 100 µM | – | > 100 µM | > 100 µM | > 100 µM | – | – | – | – | – | – | – | – | – | – |
| CC(=O)Nc1ccc(C(O)/C(=N/N)c2nc3ccc(Cl)cc3[nH]c2=O)cc1 (stereo unspecified) | > 100 µM | > 100 µM | > 100 µM | > 100 µM | – | > 100 µM | > 100 µM | > 100 µM | > 100 µM | – | – | – | – | – | – | – | – | – | – | – |
| Cc1ccc2c(C3Cc4ccccc4N3C(=O)/C=C\C(=O)O)c(C)[nH]c2c1 (stereo unspecified) | > 100 µM | – | > 100 µM | > 100 µM | 73 µM | > 100 µM | > 100 µM | 84.1 µM | > 100 µM | 79.7 µM | – | – | – | – | – | – | – | – | – | – |
